Experimental findings from US11072596B2, “Poly(ADP-ribose) polymerase inhibitor, preparation method and use” (SELECTION BIOSCIENCE LLC, priority 2017, dated 2021) are described below.

Data set [1] can be described thus: Pharmacokinetic study in rats. On the procedure:
SD rats were used as test animals, and the drug concentrations in plasma at different times after intravenous and intragastric administration of the compounds of examples were determined by LC/MS/MS method(s) to study the pharmacokinetics of the compound in the present disclosure in rats
Healthy adult male SD (Sprague-Dawley) rats, 3 animals per test compound, 6-9 weeks old, weighing 250±50 g, were purchased from Shanghai SLAC Laboratory Animal Co., Ltd.
The appropriate amount of sample was weighed out, 0.5% Methocel/2% tween 80 was added to the final volume, and 2 mg/mL was prepared for intragastric administration.
Each 3 male SD rats of each test compound were taken by intragastric administration at a dosage of 10 mg/kg after fasting overnight.
Blood samples of each animal were collected at different time points 0.083-24 h from jugular vein puncture after administration, K2-EDTA anticoagulation, centrifugation, and blood plasma were collected, frozen at −70° C. until LC/MS/MS analysis.

A further data set concerns the target T1, PARP1 (Homo sapiens, UniProt P09874).
T1 construct: purchased BPS 80580
Briefly: PARP1 Colorimetric Assay (PARP-1 kinase inhibitory activity). To be noted: PARP1 colorimetric assay kit, 1 hour at room temperature; read-out: PARP1 (in vitro enzymatic inhibitory activity, IC50). In kind it is biochemical. On the procedure:
PARP1 kinase activity was tested by the following method:
PARP1 Colorimetric Assay Kit (BPS, Cat #80580)
1. PARP1 Colorimetric Assay
2) 50 μL of diluted coating solution was added to each well for overnight at 4° C.
4) 200 μL of blocking buffer was added to each well and incubated at room temperature for 90 minutes.
1) A reaction solution was prepared in a ratio of […] 2.5 μL 10×PARP buffer+2.5 μL 10×PARP Assay mixture+5 μL Activated DNA+15 μL deionized water per well, and 25 μL of the reaction solution was added to each well (see Table 1).
4) 100 μL of colorimetric HRP substrate was added to each well and reacted at room temperature for 20 minutes.
5) 100 μL of 2 M H2SO4 was added to each well and OD 450 nm was read on a microplate reader.

For data set [2], the target named is hERG potassium ion channel (Homo sapiens, UniProt Q12809). As to the kind of experiment: in vitro. The settings on record: human. On the procedure:
CHO-hERG cells were cultured in a 175 cm^2 flask, and when the cell density was increased to 60-80%, the medium was removed and washed with 7 mL of PBS (Phosphate Buffered Saline phosphate buffer), and then digested with 3 mL of Detachin.
The single-cell high impedance sealing and the whole-cell mode formation process were all automatically completed by the Qpatch instrument. After obtaining the whole-cell recording mode, the cells were clamped at −80 mV (millivolt). Before giving a 5-second+40 mV depolarization stimulus, a 50 ms-50 mV pre-voltage was first given, repolarized to −50 mV for 5 seconds, and then returned to −80 mV. This voltage stimulation was applied every 15 seconds. After recording for 2 minutes, extracellular fluid was given for 5 minutes, and then the administration process was started. The compound concentration started from the lowest test concentration, and each test concentration was given for 2.5 minutes. […] At least 3 cells were tested at each concentration (n≥3).
The 20 mM compound mother solution was diluted with extracellular fluid, and 5 μL of 20 mM compound mother solution was added to 2495 μL of extracellular solution, diluted 500-fold to 40 μM, and then sequentially performed 3-fold continuous dilution in an extracellular fluid containing 0.2% DMSO to obtain the final concentration to be tested.
The experimental data were analyzed by XLFit software.

Setting [3] is: SD rats, table head: Dose PO (10 mg/kg).
The mark [4] stands for this setting: male, Sprague-Dawley, rat, in vivo, po, 10 mg/kg.

SMILES strings stand for the structures.

T1 sequence (P09874 whole entry): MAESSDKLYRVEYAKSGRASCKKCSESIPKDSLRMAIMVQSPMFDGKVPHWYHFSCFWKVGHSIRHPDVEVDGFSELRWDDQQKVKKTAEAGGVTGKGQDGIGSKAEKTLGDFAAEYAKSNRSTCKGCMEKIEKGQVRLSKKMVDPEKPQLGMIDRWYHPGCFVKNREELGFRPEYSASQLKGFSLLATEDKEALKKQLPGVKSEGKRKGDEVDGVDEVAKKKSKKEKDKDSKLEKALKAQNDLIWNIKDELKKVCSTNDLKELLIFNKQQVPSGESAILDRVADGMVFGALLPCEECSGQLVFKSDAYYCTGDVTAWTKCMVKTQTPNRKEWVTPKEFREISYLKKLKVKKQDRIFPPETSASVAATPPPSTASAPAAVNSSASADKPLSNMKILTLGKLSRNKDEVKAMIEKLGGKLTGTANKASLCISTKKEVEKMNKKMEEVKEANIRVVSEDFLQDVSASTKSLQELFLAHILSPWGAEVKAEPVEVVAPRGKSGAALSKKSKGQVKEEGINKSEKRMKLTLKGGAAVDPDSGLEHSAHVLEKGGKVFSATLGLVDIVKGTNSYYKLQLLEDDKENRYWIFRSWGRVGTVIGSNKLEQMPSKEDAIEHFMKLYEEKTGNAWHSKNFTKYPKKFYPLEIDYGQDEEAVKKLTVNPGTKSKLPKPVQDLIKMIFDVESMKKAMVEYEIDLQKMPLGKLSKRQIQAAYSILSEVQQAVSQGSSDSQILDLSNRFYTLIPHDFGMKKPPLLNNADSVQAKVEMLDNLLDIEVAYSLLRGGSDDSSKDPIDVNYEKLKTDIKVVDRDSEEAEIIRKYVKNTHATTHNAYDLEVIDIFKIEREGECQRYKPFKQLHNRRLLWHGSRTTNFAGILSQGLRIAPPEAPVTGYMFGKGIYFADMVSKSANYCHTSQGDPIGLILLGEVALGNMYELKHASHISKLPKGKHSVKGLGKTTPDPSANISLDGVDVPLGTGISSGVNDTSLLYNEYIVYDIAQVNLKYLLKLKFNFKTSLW
Chain of hERG potassium ion channel (Q12809 whole entry): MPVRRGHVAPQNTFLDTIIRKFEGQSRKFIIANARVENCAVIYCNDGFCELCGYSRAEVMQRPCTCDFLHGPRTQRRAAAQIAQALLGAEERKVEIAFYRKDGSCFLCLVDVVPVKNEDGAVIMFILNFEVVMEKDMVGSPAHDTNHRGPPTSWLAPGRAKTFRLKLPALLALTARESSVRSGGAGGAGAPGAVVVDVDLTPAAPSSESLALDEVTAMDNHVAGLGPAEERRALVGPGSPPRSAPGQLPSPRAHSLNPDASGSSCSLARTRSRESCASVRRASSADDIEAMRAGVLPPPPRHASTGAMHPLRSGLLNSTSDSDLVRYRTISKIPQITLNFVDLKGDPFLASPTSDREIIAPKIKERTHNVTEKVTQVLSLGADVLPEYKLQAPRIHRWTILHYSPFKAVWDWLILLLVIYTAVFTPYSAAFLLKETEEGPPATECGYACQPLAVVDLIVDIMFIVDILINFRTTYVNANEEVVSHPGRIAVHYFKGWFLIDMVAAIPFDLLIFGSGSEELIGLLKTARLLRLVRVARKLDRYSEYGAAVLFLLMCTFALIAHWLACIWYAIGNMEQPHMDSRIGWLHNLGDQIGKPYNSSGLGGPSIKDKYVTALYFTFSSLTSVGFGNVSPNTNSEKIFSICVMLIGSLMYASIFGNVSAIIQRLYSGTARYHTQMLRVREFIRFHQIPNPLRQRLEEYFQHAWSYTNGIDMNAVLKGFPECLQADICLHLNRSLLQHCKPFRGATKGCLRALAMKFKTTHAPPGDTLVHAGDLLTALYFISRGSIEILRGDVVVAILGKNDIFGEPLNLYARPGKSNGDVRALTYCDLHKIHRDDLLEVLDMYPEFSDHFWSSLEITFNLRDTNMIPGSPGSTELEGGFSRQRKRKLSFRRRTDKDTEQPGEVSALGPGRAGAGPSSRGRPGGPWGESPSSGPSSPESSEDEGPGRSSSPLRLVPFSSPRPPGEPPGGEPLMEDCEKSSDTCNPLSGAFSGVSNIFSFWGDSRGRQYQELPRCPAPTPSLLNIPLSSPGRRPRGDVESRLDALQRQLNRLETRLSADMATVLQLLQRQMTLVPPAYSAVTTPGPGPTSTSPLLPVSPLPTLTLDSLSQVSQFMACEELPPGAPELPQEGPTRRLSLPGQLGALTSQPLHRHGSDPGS

Turning to `[2H]C1(c2ccc(-n3cc4cccc(C(N)=O)c4n3)cc2)CCCNC1` (single isomer, unassigned) [Example 3, (R or S)-2-(4-(piperidin-3-D-3-yl)phenyl)-2H-indazole-7-carboxamide], in data set [1] (SD rats, PO 10 mg/kg), the F was 62.3% and the “exposure amount (AUC) compared with Niraparib, in words” value is “significantly higher”. In addition, in data set [1] (setting [3]), the CL is 24.9 mL/min/kg and the Vdss is 6.04 L/kg. In addition, in data set [1] (male, Sprague-Dawley, rat, plasma, po, 10 mg/kg, AUC, SD rats, PO 10 mg/kg), the AUC – broadly, the area under the concentration-time curve, a measure of exposure – worked out at 5160 ng·h/mL. The highest level in data set [1] (male, Sprague-Dawley, rat, plasma, po, 10 mg/kg, Cmax, SD rats, PO 10 mg/kg) (Cmax) was 549 ng/mL. For the same molecule, the MRT – broadly, a mean duration of stay, worked out from the concentration-time curve – in data set [1] (male, Sprague-Dawley, rat, plasma, po, 10 mg/kg, MRT, SD rats, PO 10 mg/kg) was 7.95 h. Further, the half-life (commonly the time in which the quantity being followed falls by half) in data set [1] (male, Sprague-Dawley, rat, plasma, po, 10 mg/kg, T1/2, SD rats, PO 10 mg/kg) was 191 min. Regarding `NC(=O)c1cccc2cn(-c3ccc([C@]4(F)CCCNC4)cc3)nc12` (single isomer, unassigned) [Example 24, (R or S)-2-(4-(3-fluoropiperidin-3-yl)phenyl)-2H-indazole-7-carboxamide], the IC50 (usually the concentration needed to halve the response being measured) at PARP1 was less than 100 nM. In addition, in data set [1] (setting [4]), the F is recorded as 61.3%, the MRT is 4.63 h and the T1/2 turned out to be 2.64 h. As for `COc1cc(N)c(Cl)cc1C(=O)NC1CCN(CCCOc2ccc(F)cc2)CC1OC` (stereo not shown) [Cisapride], the inhibition (commonly how much of the control response was suppressed) at 2.5 min, 40 µM in data set [2] was found to be 87.4%.

In the case of `NC(=O)c1cccc2c(F)n(-c3ccc([C@@]4(F)CCCNC4)cc3)nc12` [Example 32], at PARP1, the IC50 lay in the range of 100 to 500 nM. For `NC(=O)c1cccc2c(F)n(-c3ccc([C@]4(F)CCCNC4)cc3)nc12` [Example 33], the IC50 on PARP1 is 100 to 500 nM.

On to `NC(=O)c1cccc2cn(-c3ccc(C4(F)CCCNC4)cc3F)nc12` (stereo not shown) [Example 34], for which the IC50 on PARP1 is 100 to 500 nM. The same measure, in the same setting: under `NC(=O)c1cccc2cn(-c3ccc([C@@]4(F)CCCNC4)cc3F)nc12` [Example 35] stands 100 to 500 nM. Still for that read-out and setting: under `NC(=O)c1cccc2cn(-c3ccc([C@]4(F)CCCNC4)cc3F)nc12` [Example 36] stands 100 to 500 nM; under `NC(=O)c1c(F)ccc2cn(-c3ccc(C4(F)CCCNC4)cc3)nc12` (stereo not shown) [Example 37], 100 to 500 nM; under `NC(=O)c1c(F)ccc2cn(-c3ccc([C@]4(F)CCCNC4)cc3)nc12` [Example 38], 100 to 500 nM. Turning to `NC(=O)c1c(F)ccc2cn(-c3ccc([C@@]4(F)CCCNC4)cc3)nc12` [Example 39], the IC50 on PARP1 is 100 to 500 nM. On the same count and under the same terms, under `NC(=O)c1ccc(F)c2cn(-c3ccc(C4(F)CCCNC4)cc3)nc12` (stereo not shown) [Example 40] stands 100 to 500 nM; under `NC(=O)c1ccc(F)c2cn(-c3ccc([C@]4(F)CCCNC4)cc3)nc12` [Example 41], 100 to 500 nM; under `NC(=O)c1ccc(F)c2cn(-c3ccc([C@@]4(F)CCCNC4)cc3)nc12` [Example 42], 100 to 500 nM.

On to `C[C@]1(c2ccc(-n3cc4cccc(C(N)=O)c4n3)cc2)CCCNC1` [Example 44, (R or S)-2-(4-(3-methylpiperidin-3-yl)phenyl)-2H-indazole-7-carboxamide], for which the IC50 at PARP1 was in the range of 100 to 500 nM.

On to `CC1(c2ccc(-n3cc4cc(F)cc(C(N)=O)c4n3)cc2)CCCNC1` (stereo not shown) [Example 46], for which the IC50 at PARP1 is 100 to 500 nM.

`C[C@@]1(c2ccc(-n3cc4cc(F)cc(C(N)=O)c4n3)cc2)CCCNC1` [Example 47]: the IC50 at PARP1 was 100 to 500 nM.

On to `C[C@]1(c2ccc(-n3cc4cc(F)cc(C(N)=O)c4n3)cc2)CCCNC1` [Example 48], for which the IC50 on PARP1 is 100 to 500 nM.

Take `CC1(c2ccc(-n3cc4cccc(C(N)=O)c4n3)cc2F)CCCNC1` (stereo not shown) [Example 49]: on PARP1, the IC50 fell in the range of 100 to 500 nM. On the same count and under the same terms, next, `C[C@]1(c2ccc(-n3cc4cccc(C(N)=O)c4n3)cc2F)CCCNC1` [Example 50]: 100 to 500 nM; `C[C@@]1(c2ccc(-n3cc4cccc(C(N)=O)c4n3)cc2F)CCCNC1` [Example 51]: 100 to 500 nM. The same measure, in the same setting: under `CC1(c2ccc(-n3nc4c(C(N)=O)cccc4c3F)cc2)CCCNC1` (stereo not shown) [Example 52] stands 500 to 1000 nM; under `C[C@]1(c2ccc(-n3nc4c(C(N)=O)cccc4c3F)cc2)CCCNC1` [Example 53], 500 to 1000 nM; under `C[C@@]1(c2ccc(-n3nc4c(C(N)=O)cccc4c3F)cc2)CCCNC1` [Example 54], 500 to 1000 nM. Regarding `CC1(c2ccc(-n3cc4cccc(C(N)=O)c4n3)c(F)c2)CCCNC1` (stereo not shown) [Example 55], the IC50 at PARP1 was 100 to 500 nM. Still for that read-out and setting: under `C[C@]1(c2ccc(-n3cc4cccc(C(N)=O)c4n3)c(F)c2)CCCNC1` [Example 56] stands 100 to 500 nM. Still for that read-out and setting: under `C[C@@]1(c2ccc(-n3cc4cccc(C(N)=O)c4n3)c(F)c2)CCCNC1` [Example 57] stands 100 to 500 nM.
